Data taken from patent publication US11028093B2, “4,6-substituted-pyrazolo[1,5-a]pyrazines as janus kinase inhibitors” (Array BioPharma Inc., priority 2014, dated 2021).
Where two headings read alike, the source gives them in different places.

Assays:
Type in all cases: biochemical
[1] = target: JAK2 (Homo sapiens (Human), UniProt O60674); assay: JAK2 Inhibition Assay (Omnia kinase fluorescence peptide substrate assay, 1 mM ATP)
From the text: (§1) The assays described in Examples A, B, C and D for the determination of Tyk2, JAK1, JAK2 and JAK3 kinase activity, respectively, utilized the Omnia® Kinase fluorescence peptide substrate-based technology (Invitrogen). The specific components of the assay mixture are described in Examples A, B, C and D. In these assays, Mg^2+ is chelated upon phosphorylation of the Omnia peptide by the kinase to form a bridge between the chelation-enhanced fluorophore Sox and the phosphate, resulting in an increase in fluorescence emission at 485 nm when excited at […]. The reactions were therefore read at excitation 360 nm and emission was measured at 485 nm every 50 seconds for 45 minutes using a PerkinElmer EnVision Multilabel Plate Reader.
(§2) The final buffer conditions for Tyk2, JAK1, JAK2, and JAK3 assays were as follows: 25 mM HEPES, pH 7.4, 10 mM MgCl2, 0.01% Triton X-100 and 1 mM DTT.
(§3) Two-μL aliquots of these were transferred to a fresh plate for a ten-fold intermediate dilution with assay buffer. Five-μL aliquots of the diluted compounds were then transferred to 20-μL of assay mixtures described in Examples A, B, C and D for a final concentration of DMSO of 2%. […] For each plate, percent of control (POC) values were calculated for each well according to the following equation:
(§4) where Xmax=Average Uninhibited Controls • Xmin=Average Background IC50's were estimated from the POC's using a standard 4-parameter logistic model:
(§5) where A=Minimum Y (Bottom Asymptote) • B=Maximum Y (Top Asymptote) • C=EC50 • D=Slope Factor • X=Compound Concentration (nM) • Y=POC
(§6) The IC50 is defined as the concentration of inhibitor at which the POC equals 50 for the fitted curve.
(§7) Compounds of Formula I were screened for their ability to inhibit JAK2 using the general enzyme inhibition assay method, in which the assay mixture contained 1 mM ATP, 10 μM Omnia® Y7 peptide (Catalog # IVGN KNZ3071C, Invitrogen Corporation, Carlsbad, Calif.) and 4 nM JAK2 in a total volume of 25 μL. JAK2 was purchased from Invitrogen Corporation, Carlsbad, Calif. (catalog # IVGN PV4288).

[2] = target: Human Tyk2 kinase domain (Homo sapiens (Human), UniProt P29597); assay: Tyk2 Inhibition Assay (Omnia kinase fluorescence peptide substrate assay, 1 mM ATP)
From the text: as §1, §2, §3, §4, §5, §6
Compounds of Formula I were screened for their ability to inhibit Tyk2 using the general enzyme inhibition assay method, in which the assay mixture contained 1 mM ATP, 8 μM Omnia® Y12 peptide (Catalog # IVGN KPZ3121C; Invitrogen Corporation, Carlsbad, Calif.) and 1 nM Tyk2 in a total volume of 25 μL. […]

[3] = target: JAK3 (Homo sapiens (Human), UniProt P52333); assay: JAK3 Inhibition Assay (Omnia kinase fluorescence peptide substrate assay, 1 mM ATP)
From the text: as §1, §2, §3, §4, §5, §6
as §7, with “JAK3” for “JAK2”, “2” for “4”, “PV4080).” for “PV4288).”

[4] = target: JAK1 (Homo sapiens (Human), UniProt P23458); assay: JAK1 Inhibition Assay (Omnia kinase fluorescence peptide substrate assay, 1 mM ATP)
From the text: as §1, §2
as §3, with “equation: […]” for “equation:”

[5] = read-out: JAK2 Enzyme IC50 1 mM ATP, 1 mM ATP, averaged IC50 ranges
[6] = read-out: TYK2 Enzyme IC50 1 mM ATP, 1 mM ATP, averaged IC50 ranges

JAK2, sequence (O60674 808-1132): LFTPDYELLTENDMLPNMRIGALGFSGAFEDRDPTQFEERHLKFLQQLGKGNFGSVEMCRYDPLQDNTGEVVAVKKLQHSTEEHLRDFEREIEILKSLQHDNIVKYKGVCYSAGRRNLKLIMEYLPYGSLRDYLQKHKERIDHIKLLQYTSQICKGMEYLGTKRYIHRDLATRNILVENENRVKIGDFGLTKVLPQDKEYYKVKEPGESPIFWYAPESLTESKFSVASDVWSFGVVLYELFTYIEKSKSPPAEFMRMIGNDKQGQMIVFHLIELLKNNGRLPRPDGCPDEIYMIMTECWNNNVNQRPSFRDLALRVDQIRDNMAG
JAK3, sequence (P52333 781-1124): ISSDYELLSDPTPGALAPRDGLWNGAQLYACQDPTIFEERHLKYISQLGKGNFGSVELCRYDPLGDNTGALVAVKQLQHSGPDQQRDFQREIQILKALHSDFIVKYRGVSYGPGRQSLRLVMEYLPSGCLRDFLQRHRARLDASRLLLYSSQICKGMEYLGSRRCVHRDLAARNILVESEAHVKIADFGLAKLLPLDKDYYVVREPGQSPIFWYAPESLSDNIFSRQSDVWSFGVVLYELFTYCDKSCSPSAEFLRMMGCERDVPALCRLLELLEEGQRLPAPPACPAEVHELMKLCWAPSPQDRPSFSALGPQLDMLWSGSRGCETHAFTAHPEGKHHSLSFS
Human Tyk2 kinase domain, sequence (P29597 886-1187): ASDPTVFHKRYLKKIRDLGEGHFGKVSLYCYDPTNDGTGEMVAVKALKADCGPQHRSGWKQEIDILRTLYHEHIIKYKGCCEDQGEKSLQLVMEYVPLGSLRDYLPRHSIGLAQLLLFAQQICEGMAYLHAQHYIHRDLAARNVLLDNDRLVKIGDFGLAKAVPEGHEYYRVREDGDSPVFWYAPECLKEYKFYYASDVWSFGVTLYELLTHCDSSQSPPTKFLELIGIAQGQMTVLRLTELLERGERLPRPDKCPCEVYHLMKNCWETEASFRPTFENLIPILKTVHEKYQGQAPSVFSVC
JAK1, sequence (P23458 866-1154): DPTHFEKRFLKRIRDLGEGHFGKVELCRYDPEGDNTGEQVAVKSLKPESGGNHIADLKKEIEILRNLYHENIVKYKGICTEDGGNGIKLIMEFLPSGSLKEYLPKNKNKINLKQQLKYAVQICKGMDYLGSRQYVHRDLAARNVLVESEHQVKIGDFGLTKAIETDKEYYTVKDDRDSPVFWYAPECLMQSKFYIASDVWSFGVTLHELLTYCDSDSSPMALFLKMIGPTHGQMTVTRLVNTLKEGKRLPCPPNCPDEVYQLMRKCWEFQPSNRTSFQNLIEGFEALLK

Molecule	IC50 [1, 5] [nM]	IC50 [3] [nM]	other results
CCC1(n2cc(-c3nc(-c4cnn(C)c4)cn4nccc34)cn2)CN(S(=O)(=O)C(F)(F)F)C1 [Example 48, 4-(1-(3-ethyl-1-((trifluoromethyl)sulfonyl)azetidin-3-yl)-1H-pyrazol-4-yl)-6-(1-methyl-1H-pyrazol-4-yl)pyrazolo[1,5-a]pyrazine]	< 10		IC50 [2, 6]: < 10 nM
CCC(CC)n1cc(-c2nc(-c3cnn([C@H]4CC[C@H](O)CC4)c3)cn3nccc23)cn1 [Example 118, trans-4-(4-(4-(1-(pentan-3-yl)-1H-pyrazol-4-yl)pyrazolo[1,5-a]pyrazin-6-yl)-1H-pyrazol-1-yl)cyclohexanol]		1000 to 10000	
(R)-3-(4-(4-(1-((S)-2,2-dimethylcyclopentyl)-1H-pyrazol-4-yl)pyrazolo[1,5-a]pyrazin-6-yl)-1H-pyrazol-1-yl)propane-1,2-diol [Example 95]	1000 to 10000		IC50 [2, 6]: 1000 to 10000 nM
CC[C@@H](CC1CC1)n1cc(-c2nc(-c3cnn(C[C@@H](O)CO)c3)cn3nccc23)cn1 [Example 205, (R)-3-(4-(4-(1-((S)-1-cyclopropylbutan-2-yl)-1H-pyrazol-4-yl)pyrazolo[1,5-a]pyrazin-6-yl)-1H-pyrazol-1-yl)propane-1,2-diol]		1000 to 10000	IC50 [1]: 10 to 100 nM; IC50 [2]: 10 to 100 nM; IC50 [4]: 100 to 1000 nM
CCC(CC)n1cc(-c2nc(-c3cnn(C4CN(S(C)(=O)=O)C4)c3)cn3nccc23)cn1 [Example 37, 6-(1-(1-(methylsulfonyl)azetidin-3-yl)-1H-pyrazol-4-yl)-4-(1-(pentan-3-yl)-1H-pyrazol-4-yl)pyrazolo[1,5-a]pyrazine]	< 10		
(1s,3s)-3-(4-(4-(1-(pentan- 3-yl)-1H-pyrazol-4- yl)pyrazolo[1,5-a]pyrazin- 6-yl)-1H-pyrazol-1-yl) cyclobutanecarboxamide [Example 168]	10 to 100		IC50 ([3]; read-out: JAK3 Enzyme IC50 1 mM ATP, 1 mM ATP, averaged IC50 ranges): 1000 to 10000 nM; IC50 ([4]; read-out: JAK1 Enzyme IC50 1 mM ATP, 1 mM ATP, averaged IC50 ranges): 1000 to 10000 nM
CCC(CC)n1cc(-c2nc(-c3cnn([C@H]4C[C@@](C)(O)C4)c3)cn3nccc23)cn1 [Example 162, (1s,3 s)-1-methyl-3-(4-(4-(1-(pentan-3-yl)-1H-pyrazol-4-yl)pyrazolo[1,5-a]pyrazin-6-yl)-1H-pyrazol-1-yl)cyclobutanol]		1000 to 10000	
CCC(CC)n1cc(-c2nc(-c3cnn([C@H]4CC[C@@H](O)CC4)c3)cn3nccc23)cn1 [Example 121, cis-4-(4-(4-(1-(pentan-3-yl)-1H-pyrazol-4-yl)pyrazolo[1,5-a]pyrazin-6-yl)-1H-pyrazol-1-yl)cyclohexanol]		1000 to 10000	
